According to patent US20250179079A1, “HEXAHYDROPYRIDO[4,3-B]INDOLYL KETONE DERIVATIVES USEFUL AS CGAS MODULATORS” (Ventus Therapeutics U.S., Inc., priority 2022, published 2025):
Values after ≈ are worked out from the molar mass of the structure shown. Read-outs that look alike come from different tables or passages of the source.

Legend:
[1] = Solubility (e.g., in phosphate buffered saline (PBS)); format: physicochemical; conditions: aqueous buffer, Table D
h-cGAS = h-cGAS (Homo sapiens (Human), UniProt Q8N884); assay: hcGAS Kinase-Glo assay; format: biochemical
[2] = Table D comparative data, IC50 range designation, read-out: hcGAS (IC50)
[3] = Table D comparative data, raw data in parentheses, read-out: hcGAS (IC50)
[4] = Table C, IC50 range designation, read-out: hcGAS IC50
[5] = Table C, raw data in parentheses, read-out: hcGAS IC50

h-cGAS, sequence (Q8N884 whole entry): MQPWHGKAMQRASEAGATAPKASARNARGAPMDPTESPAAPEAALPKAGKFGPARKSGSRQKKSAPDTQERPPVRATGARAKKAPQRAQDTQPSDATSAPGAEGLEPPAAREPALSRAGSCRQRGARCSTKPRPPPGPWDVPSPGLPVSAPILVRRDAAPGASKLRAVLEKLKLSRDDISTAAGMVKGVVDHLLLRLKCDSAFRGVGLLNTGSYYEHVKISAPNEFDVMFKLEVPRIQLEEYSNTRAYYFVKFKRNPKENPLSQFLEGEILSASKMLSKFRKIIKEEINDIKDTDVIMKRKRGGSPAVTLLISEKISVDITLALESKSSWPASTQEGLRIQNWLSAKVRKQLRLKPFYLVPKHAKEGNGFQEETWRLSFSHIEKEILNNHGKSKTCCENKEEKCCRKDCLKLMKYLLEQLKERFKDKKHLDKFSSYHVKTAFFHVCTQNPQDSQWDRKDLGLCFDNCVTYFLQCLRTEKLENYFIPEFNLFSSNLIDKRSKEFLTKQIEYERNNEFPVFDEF

| solubility [1] [µM] | IC50 (h-cGAS; [2]) [nM] | IC50 (h-cGAS; [3]) [nM] | IC50 (h-cGAS; [4]) [nM] | IC50 (h-cGAS; [5]) [nM] | SMILES | IC50 (h-cGAS; read-out: hcGAS activity) [nM] |
| --- | --- | --- | --- | --- | --- | --- |
|  |  |  | 500 to 1000 | 933 | NCC(=O)N1Cc2[nH]c3c(Cl)c(Cl)ccc3c2C1 [Compound 65, 2-amino-1-(5,6-dichloro-3,4-dihydropyrrolo[3,4-b]indol-2(1H)-yl)ethan-1-one] |  |
|  |  |  | 500 to 1000 | 678 | COCCNCC(=O)N1CCc2[nH]c3c(Cl)c(Cl)ccc3c2C1 [Compound 69, 1-(6,7-dichloro-1,3,4,5-tetrahydro-2H-pyrido[4,3-b]indol-2-yl)-2-((2-methoxyethyl)amino)ethan-1-one] | 1000 to 5000 |
| 42 (≈ 13.2 µg/mL) |  |  |  |  | C[C@H]1c2c([nH]c3c(Cl)c(Cl)ccc23)CCN1C(=O)CO [Compound 157, (S)-1-(6,7-dichloro-1-methyl-1,3,4,5-tetrahydro-2H-pyrido[4,3-b]indol-2-yl)-2-hydroxyethan-1-one] |  |

Further lines, the molecule ahead of its results:

| SMILES | solubility [1] [µM] | IC50 (h-cGAS; [2]) [nM] | IC50 (h-cGAS; [3]) [nM] | IC50 (h-cGAS; [4]) [nM] | IC50 (h-cGAS; [5]) [nM] | IC50 (h-cGAS; read-out: hcGAS activity) [nM] |
| --- | --- | --- | --- | --- | --- | --- |
| O=C(CO)N1CCc2[nH]c3c(Cl)c(Cl)ccc3c2C1 [Comparative Example A, 1-(6,7-dichloro-1,3,4,5-tetrahydro-2H-pyrido[4,3-b]indol-2-yl)-2-hydroxyethan-1-one] | 2 (≈ 0.598 µg/mL) |  |  |  |  |  |
| Cn1ccc(-c2cc(Cl)c(Cl)c3[nH]c4c(c23)CN(C(=O)CO)CC4)n1 [Comparative Example B, 1-(6,7-dichloro-9-(1-methyl-1H-pyrazol-3-yl)-1,3,4,5-tetrahydro-2H-pyrido[4,3-b]indol-2-yl)-2-hydroxyethan-1-one, reference compound] | 8.1 (≈ 3.07 µg/mL) | < 100 | 35.2 |  |  |  |
| O=C(CO)N1CCn2nc3c(Cl)c(Cl)ccc3c2C1 [Comparative Example C, 1-(7,8-dichloro-3,4-dihydropyrazino[1,2-b]indazol-2(1H)-yl)-2-hydroxyethan-1-one, reference compound] | 76 (≈ 22.8 µg/mL) | > 5000 | 12800 |  |  |  |
| Cn1ccc(-c2cc(Cl)c(Cl)c3nn4c(c23)CN(C(=O)CO)CC4)n1 [Comparative Example D, 1-(7,8-dichloro-10-(1-methyl-1H-pyrazol-3-yl)-3,4-dihydropyrazino[1,2-b]indazol-2(1H)-yl)-2-hydroxyethan-1-one, reference compound] | 53 (≈ 20.2 µg/mL) |  |  |  |  |  |
| NCC(=O)N1C2COCC1c1c([nH]c3c(Cl)c(Cl)ccc13)C2 (centres unmarked) [Compound 66, 2-amino-1-(8,9-dichloro-1,2,4,5,6,7-hexahydro-1,5-epiminooxocino[5,4-b]indol-12-yl)ethan-1-one] |  |  |  | 100 to 500 | 314 | 100 to 500 |
